{"source": "patent US9102719B2", "about": "“SOGA polynucleotides and polypeptides and uses thereof” (University of North Carolina at Chapel Hill, priority 2009, dated 2015)", "key": {"SOGA": {"system": "SOGA", "assay_type": "cell-based, mouse", "procedure": "(§1) Mouse livers were perfused with a Krebs-Ringer-HEPES buffer containing collagenase (Sigma-Aldrich). Livers were isolated and cells were dispersed by gentle shaking and filtered through sterile nylon gauze. Cells were washed twice with sterile phosphate-buffered saline and purified by centrifugation in 50% isotonic Percoll (Sigma-Aldrich). Cells were resuspended with Krebs-Ringer-HEPES+Ca^2+ buffer to a total volume of 10 ml. Viability was validated via trypan blue exclusion and routinely exceeded 90%. Freshly isolated mouse hepatocytes were plated at 10^5 cells per well in 12-well culture plates coated with rat tail collagen I (BD Biosciences). […] SOGA siRNA, AICAR (500 μM) or […] (10 nM) were introduced to the media 48 hours before the measurement of glucose production. siRNA sequences corresponding to base pairs 333-351 and 1988-2007 on the open reading frame of murine SOGA were selected using a rational design algorithm (Invitrogen). […] Glucose was measured by colorimetric assay (Autokit Glucose CII) (Brooks et al., J. Biol. Chem. 282:35069 (2007)). Valine in the medium was measured by a UPLC (Waters) coupled TSQ-Quantum ultra triple quad mass analyzer (ThermoFinigan) in the Biomarkers Facility Core at UNC. Valine was measured in selected reaction monitoring mode (SRM) using the MS/MS transition of 118→72."}, "ob/ob mice": {"system": "ob/ob mice", "assay": "Pioglitazone treatment of diabetic ob/ob mice", "assay_type": "in vivo, mouse", "conditions": "after 4 days of treatment", "procedure": "Mice were housed in ventilated isolator cage systems in a pathogen-free barrier facility maintained at 23° C., 55% humidity on a 12-h light/12-h dark cycle. Mice received a standard chow diet consisting of 73% carbohydrate, 18% protein, 4% fat and 5% ash (Purina). Young (3-6 month old) female C57B1/6J calorie restricted (CR) and ad libitum fed (AL) mice were maintained as previously described (Combs et al., Diabetes 52:268 (2003)). Adjustments were made to ensure that CR mice received 70% of the ad libitum food intake. Blood samples were collected at 1300 from the tail tip using heparinized capillary tubes (Fisher) and stored at −20° C. Male ob/ob mice (FVB background strain) received a daily dose of pioglitazone at 0.6 mg/kg BW in 0.025% (w/w) carboxymethylcellulose by oral gavage for 4 days. Control mice received carboxymethylcellulose by oral gavage for 4 days. Blood was collected from the tail tip on day 5 and analyzed for glucose, adiponectin and 25 kDa SOGA. Immediately after the collection of blood samples, ob/ob mice were sacrificed by cervical dislocation for tissue collection. Northern blot analysis for SOGA mRNA and 18S RNA was performed using 20 μg of liver RNA. NOD mice were bred and housed as previously described (Wong et al., J. Immunol. 176:1637 (2006)). Where indicated, diabetic NOD mice were injected with 5 units of insulin (NPH Human Insulin, Isophane Suspension; 100 U/ml Novolin; Novo Nordisk) 24 hours prior to blood collection. Adiponectin transgenic mice were produced as previously described (Combs et al., Endocrinology 145:367 (2004)). Glucose was measured by colorimetric assay. Adiponectin and SOGA were measured by SDS-PAGE analysis using 1 μl of plasma. […] Experimental procedures were approved by IACUC."}, "NOD mice": {"system": "NOD mice", "assay": "Insulin injection in diabetic NOD mice", "assay_type": "in vivo, mouse", "conditions": "single injection of insulin 24 hours earlier", "procedure": "Mice were housed in ventilated isolator cage systems in a pathogen-free barrier facility maintained at 23° C., 55% humidity on a 12-h light/12-h dark cycle. Mice received a standard chow diet consisting of 73% carbohydrate, 18% protein, 4% fat and 5% ash (Purina). Young (3-6 month old) female C57B1/6J calorie restricted (CR) and ad libitum fed (AL) mice were maintained as previously described (Combs et al., Diabetes 52:268 (2003)). Adjustments were made to ensure that CR mice received 70% of the ad libitum food intake. Blood samples were collected at 1300 from the tail tip using heparinized capillary tubes (Fisher) and stored at −20° C. Male ob/ob mice (FVB background strain) received a daily dose of pioglitazone at 0.6 mg/kg BW in 0.025% (w/w) carboxymethylcellulose by oral gavage for 4 days. Control mice received carboxymethylcellulose by oral gavage for 4 days. Blood was collected from the tail tip on day 5 and analyzed for glucose, adiponectin and 25 kDa SOGA. Immediately after the collection of blood samples, ob/ob mice were sacrificed by cervical dislocation for tissue collection. Northern blot analysis for SOGA mRNA and 18S RNA was performed using 20 μg of liver RNA. NOD mice were bred and housed as previously described (Wong et al., J. Immunol. 176:1637 (2006)). […] Glucose was measured by colorimetric assay. Adiponectin and SOGA were measured by SDS-PAGE analysis using 1 μl of plasma. […]"}, "[1]": {"system": "primary murine hepatocytes", "assay": "Hepatocyte glucose production (colorimetric assay)", "assay_type": "cell-based, mouse", "conditions": "adiponectin exposure (adipocyte conditioned media)", "procedure": "as §1"}}, "data": [{"molecule": "NC(=O)c1ncn([C@@H]2O[C@H](CO)[C@@H](O)[C@H]2O)c1N", "note": "[AICAR, N1-(β-D-ribofuranosyl)-5-aminoimidazole-4-carboxamide]", "values": [{"measurement": "effect on SOGA level (intracellular and extracellular)", "setting": "SOGA; 500 μM AICAR, with or without adiponectin, n=4 per group", "result": "decrease in SOGA that was blocked by adiponectin exposure"}]}, {"molecule": "CCc1ccc(CCOc2ccc(CC3SC(=O)NC3=O)cc2)nc1", "note": "(centres unmarked) [Pioglitazone, pioglitazone]", "values": [{"measurement": "concentration of plasma glucose", "setting": "ob/ob mice; untreated ob/ob mice 450±18 mg/dl, p<0.05", "result": "155 ± 8", "unit": "mg/dL"}, {"measurement": "elevation of circulating adiponectin", "setting": "ob/ob mice; daily oral gavage", "result": 3, "unit": "fold"}, {"measurement": "increase of SOGA mRNA in the liver", "setting": "ob/ob mice; daily oral gavage, SOGA mRNA/18S RNA", "result": 40, "unit": "%"}, {"measurement": "elevation of circulating SOGA", "setting": "ob/ob mice; daily oral gavage, plasma 25 kDa SOGA", "result": 3, "unit": "fold"}]}, {"molecule": "insulin: NPH Human Insulin, Isophane Suspension (Novolin; Novo Nordisk)", "values": [{"measurement": "induction of SOGA (circulating 25 kDa SOGA)", "setting": "NOD mice", "result": 2, "unit": "fold"}]}, {"molecule": "Adiponectin: hormone provided from adipocyte conditioned media with or without adiponectin (protein, UniProt Q15848 19-244, looked up, in adipocyte conditioned media) Adiponectin: ETTTQGPGVLLPLPKGACTGWMAGIPGHPGHNGAPGRDGRDGTPGEKGEKGDPGLIGPKGDIGETGVPGAEGPRGFPGIQGRKGEPGEGAYVYRSAFSVGLETYVTIPNMPIRFTKIFYNQQNHYDGSTGKFHCNIPGLYYFAYHITVYMKDVKVSLFKKDKAMLFTYDQYQENNVDQASGSVLLHLEVGDQVWLQVYGEGERNGLYADNDNDSTFTGFLLYHDTN", "values": [{"measurement": "increase of SOGA in primary hepatocytes", "setting": "SOGA", "result": 40, "unit": "%"}, {"measurement": "reduction in glucose production", "setting": "[1]", "result": 50, "unit": "%"}]}]}
